The values that follow come from patent US12415794B2 (Edgewise Therapeutics, Inc., priority 2018, dated 2025).

Assay [1] addresses skeletal myofibrils (myosin ATPase). Kind of assay: Skeletal Myofibril ATPase Assay. Type of assay: biochemical. Summed up: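 Rates of NADH loss (A340, kinetic read over 45 min) report ADP generation by myofibrillar myosin, coupled through pyruvate kinase and lactate dehydrogenase; pCa buffer at pH 7.0. IC50 fitted by 4-parameter logistic after normalizing to 1% DMSO controls; cardiac myofibrils served for selectivity.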

Assay [2] has as its target T1, cardiac myofibrils (myosin ATPase).
T1 construct: frozen myofibril pellets obtained from cardiac tissue; from tissue
The experiment in a line: Cardiac Myofibril ATPase Assay (counter screen). To be noted: myofibrils 1.0 mg/mL, KCl omitted. It counts as biochemical. Summed up: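 Myosin ATPase rate followed via NADH disappearance at 340 nm, coupled through pyruvate kinase and lactate dehydrogenase, using cardiac myofibril pellets (final 1.0 mg/mL) without KCl. IC50 values reflect rate reduction compared with vehicle-treated wells.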
On the technique in general: A counterscreen serves to expose hits that act by an unwanted route or on another target.

T1 sequence (P12883 whole entry): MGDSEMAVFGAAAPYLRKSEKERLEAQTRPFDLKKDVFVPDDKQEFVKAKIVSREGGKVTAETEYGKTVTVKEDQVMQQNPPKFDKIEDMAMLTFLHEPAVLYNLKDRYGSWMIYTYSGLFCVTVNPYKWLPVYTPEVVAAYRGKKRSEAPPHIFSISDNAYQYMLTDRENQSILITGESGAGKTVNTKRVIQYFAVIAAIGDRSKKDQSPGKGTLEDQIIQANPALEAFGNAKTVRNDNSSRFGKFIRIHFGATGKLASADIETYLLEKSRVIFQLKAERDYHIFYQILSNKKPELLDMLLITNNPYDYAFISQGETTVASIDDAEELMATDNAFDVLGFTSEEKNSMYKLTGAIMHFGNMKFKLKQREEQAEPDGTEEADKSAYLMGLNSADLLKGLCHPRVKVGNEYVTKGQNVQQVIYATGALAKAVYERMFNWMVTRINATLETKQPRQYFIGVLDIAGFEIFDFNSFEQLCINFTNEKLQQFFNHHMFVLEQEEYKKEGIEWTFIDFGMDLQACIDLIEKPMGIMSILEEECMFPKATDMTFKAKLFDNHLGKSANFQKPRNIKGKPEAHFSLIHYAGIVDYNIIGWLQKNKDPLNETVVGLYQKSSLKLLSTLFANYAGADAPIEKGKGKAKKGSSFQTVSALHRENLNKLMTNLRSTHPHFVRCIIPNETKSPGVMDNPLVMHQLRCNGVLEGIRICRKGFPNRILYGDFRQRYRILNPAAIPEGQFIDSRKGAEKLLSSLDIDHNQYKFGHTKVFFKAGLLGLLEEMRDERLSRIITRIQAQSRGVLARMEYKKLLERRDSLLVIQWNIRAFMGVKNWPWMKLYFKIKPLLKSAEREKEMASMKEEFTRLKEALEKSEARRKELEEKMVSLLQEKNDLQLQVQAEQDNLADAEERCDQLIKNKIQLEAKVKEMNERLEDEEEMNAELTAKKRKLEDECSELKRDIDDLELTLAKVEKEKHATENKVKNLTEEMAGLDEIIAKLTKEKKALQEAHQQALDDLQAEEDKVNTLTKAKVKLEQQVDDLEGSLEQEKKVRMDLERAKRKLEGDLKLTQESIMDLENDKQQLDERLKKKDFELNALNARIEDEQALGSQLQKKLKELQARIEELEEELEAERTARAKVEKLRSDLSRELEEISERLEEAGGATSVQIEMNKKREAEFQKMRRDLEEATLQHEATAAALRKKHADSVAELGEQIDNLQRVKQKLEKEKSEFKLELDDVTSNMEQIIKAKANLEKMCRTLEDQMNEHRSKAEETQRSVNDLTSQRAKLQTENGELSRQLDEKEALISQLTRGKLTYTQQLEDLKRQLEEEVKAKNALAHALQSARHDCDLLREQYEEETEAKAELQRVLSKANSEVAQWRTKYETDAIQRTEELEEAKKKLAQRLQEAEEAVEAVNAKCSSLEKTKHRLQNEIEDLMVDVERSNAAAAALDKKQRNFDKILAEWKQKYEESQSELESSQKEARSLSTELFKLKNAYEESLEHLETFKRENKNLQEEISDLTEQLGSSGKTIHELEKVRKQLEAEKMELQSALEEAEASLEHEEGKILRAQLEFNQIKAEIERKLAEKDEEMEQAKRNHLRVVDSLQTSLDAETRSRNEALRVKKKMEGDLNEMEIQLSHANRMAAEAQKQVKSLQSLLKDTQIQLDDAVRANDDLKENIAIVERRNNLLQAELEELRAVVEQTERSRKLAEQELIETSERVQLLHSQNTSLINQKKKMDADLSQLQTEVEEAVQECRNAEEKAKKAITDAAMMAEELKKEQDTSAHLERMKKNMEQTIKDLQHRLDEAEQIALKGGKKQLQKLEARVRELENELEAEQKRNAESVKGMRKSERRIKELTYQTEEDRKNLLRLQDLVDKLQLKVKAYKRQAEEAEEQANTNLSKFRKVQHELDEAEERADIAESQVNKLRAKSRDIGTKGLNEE
T1 sequence (P08590 whole entry partner): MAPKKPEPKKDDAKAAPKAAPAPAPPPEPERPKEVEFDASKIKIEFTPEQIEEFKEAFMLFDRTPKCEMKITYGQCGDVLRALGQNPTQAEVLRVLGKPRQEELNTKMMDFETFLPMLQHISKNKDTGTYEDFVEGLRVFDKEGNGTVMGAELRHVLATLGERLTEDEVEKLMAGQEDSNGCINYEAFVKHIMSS
T1 sequence (P10916 whole entry partner): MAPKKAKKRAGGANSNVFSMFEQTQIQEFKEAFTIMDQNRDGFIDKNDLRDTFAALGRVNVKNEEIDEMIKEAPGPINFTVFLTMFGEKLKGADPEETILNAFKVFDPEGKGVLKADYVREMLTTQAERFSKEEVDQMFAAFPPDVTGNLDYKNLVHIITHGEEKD

For the compound `C[C@@H](NC(=O)Cn1nc(-c2ccc3c(c2)OCCCO3)ccc1=O)c1ccc(F)cc1` [IIIb-26, (R)-2-(3-(3,4-dihydro-2H-benzo[b][1,4]dioxepin-7-yl)-6-oxopyridazin-1(6H)-yl)-N-(1-(4-fluorophenyl)ethyl)acetamide], the IC50 (in general, the midpoint of a concentration-inhibition curve) in assay [1] (Table 4C) is 10 to 100 µM; in assay [2] (Table 5C), over 100 µM.

Take `COc1ccc(-c2ccc(=O)n(CC(=O)Nc3ccc(C(C)C)cc3)n2)cc1` [IIIb-56, N-(4-isopropylphenyl)-2-(3-(4-methoxyphenyl)-6-oxopyridazin-1(6H)-yl)acetamide]: the half-inhibitory concentration (IC50) in assay [1] (Table 4C) and in assay [2] (Table 5C) was over 100 µM each time.

As for `CC[C@H](C)NC(=O)Cn1nc(-c2ccccc2)ccc1=O` [IIIc-57, (S)-N-(sec-butyl)-2-(6-oxo-3-phenylpyridazin-1(6H)-yl)acetamide], the IC50 in assay [1] (Table 4C) is 10 to 100 µM; in assay [2] (Table 5C) it was over 100 µM.

As for `O=C(Cn1nc(-c2cnc(OCC(F)(F)F)nc2)ccc1=O)NC12CC(C1)C2` [Compound I-51, N-(bicyclo[1.1.1]pentan-1-yl)-2-(6-oxo-3-(2-(2,2,2-trifluoroethoxy)pyrimidin-5-yl)pyridazin-1(6H)-yl)acetamide], the IC50 in assay [1] (Table 4A) was under 10 µM; in assay [2] (Table 5A), over 100 µM.

With `COc1ccc(-c2ccc(=O)n(CC(=O)NCc3ccc(Cl)cc3Cl)n2)cc1` [IIIa-12, N-(2,4-dichlorobenzyl)-2-(3-(4-methoxyphenyl)-6-oxopyridazin-1(6H)-yl)acetamide], the IC50 in assay [1] (Table 4C) was under 10 µM; in assay [2] (Table 5C), over 100 µM.

As to `CC(C)Oc1ccc(-c2ccc(=O)n(CC(=O)NCc3ccccc3Cl)n2)cc1` [IIIa-2, N-(2-chlorobenzyl)-2-(3-(4-isopropoxyphenyl)-6-oxopyridazin-1(6H)-yl)acetamide], the IC50 in assay [1] (Table 4C) is under 10 µM; in assay [2] (Table 5C), over 100 µM.

Take `CCNC(=O)Cn1nc(-c2ccc(OCCN(C)C)nc2)ccc1=O` [Compound I-26, 2-(3-(6-(2-(dimethylamino)ethoxy)pyridin-3-yl)-6-oxopyridazin-1(6H)-yl)-N-ethylacetamide]: the IC50 in assay [1] (Table 4A) and in assay [2] (Table 5A) was over 100 µM in each case.

With `CCNC(=O)Cn1nc(-c2ccc(OCC3(C)COC3)nc2)ccc1=O` [Compound I-24, N-ethyl-2-(3-(6-((3-methyloxetan-3-yl)methoxy)pyridin-3-yl)-6-oxopyridazin-1(6H)-yl)acetamide], the figures for the 50% inhibitory concentration (IC50) in assay [1] (Table 4A) and in assay [2] (Table 5A) were 10 to 100 µM and over 100 µM, respectively.

Take `COc1ccc(-c2ccc(=O)n(CC(=O)NC(C)CCc3ccccc3)n2)cc1` (stereo not drawn) [IIIb-30, 2-(3-(4-methoxyphenyl)-6-oxopyridazin-1(6H)-yl)-N-(4-phenylbutan-2-yl)acetamide]: the IC50 in assay [1] (Table 4C) and in assay [2] (Table 5C) was 10 to 100 µM in each case.

Consider `O=C(Cn1nc(-c2ccc(F)cc2)ccc1=O)NCCc1c[nH]c2ccccc12` [IIIc-44, N-(2-(1H-indol-3-yl)ethyl)-2-(3-(4-fluorophenyl)-6-oxopyridazin-1(6H)-yl)acetamide], for which the IC50 is 10 to 100 µM in assay [1] (Table 4C) and over 100 µM in assay [2] (Table 5C).

Regarding `CCNC(=O)Cn1nc(-c2ccc(OC3CC(F)(F)C3)nc2)ccc1=O` [Compound I-75, 2-(3-(6-(3,3-difluorocyclobutoxy)pyridin-3-yl)-6-oxopyridazin-1(6H)-yl)-N-ethylacetamide], the 50% inhibitory concentration (IC50) in assay [1] (Table 4A) is 10 to 100 µM; in assay [2] (Table 5A), over 100 µM.

As for `COc1ccc(-c2ccc(=O)n(CC(=O)NCCc3ccccc3)n2)c(F)c1` [IIIb-9, 2-(3-(2-fluoro-4-methoxyphenyl)-6-oxopyridazin-1(6H)-yl)-N-phenethylacetamide], the results for the concentration for half-maximal inhibition (IC50) in assay [1] (Table 4C) and in assay [2] (Table 5C) were under 10 µM and over 100 µM, respectively.

Consider `COc1ccc(-c2ccc(=O)n(CC(=O)NC3CC3)n2)cc1` [IIIb-22, N-cyclopropyl-2-(3-(4-methoxyphenyl)-6-oxopyridazin-1(6H)-yl)acetamide], for which the figures for the concentration for half-maximal inhibition (IC50) in assay [1] (Table 4C) and in assay [2] (Table 5C) were 10 to 100 µM and over 100 µM, respectively.

Turning to `COc1ccc(-c2ccc(=O)n(CC(=O)NCc3cccc(Cl)c3)n2)cc1` [IIIa-8, N-(3-chlorobenzyl)-2-(3-(4-methoxyphenyl)-6-oxopyridazin-1(6H)-yl)acetamide], the IC50 in assay [1] (Table 4C) is under 10 µM; in assay [2] (Table 5C), over 100 µM.

Turning to `COc1ccc(-c2ccc(=O)n(CC(=O)NCCC3=CCCCC3)n2)c(F)c1` [IIIb-7, N-(2-(cyclohex-1-en-1-yl)ethyl)-2-(3-(2-fluoro-4-methoxyphenyl)-6-oxopyridazin-1(6H)-yl)acetamide], the 50% inhibitory concentration (IC50) in assay [1] (Table 4C) was under 10 µM; in assay [2] (Table 5C) it was over 100 µM.

With `CCNC(=O)Cn1nc(-c2ccc(NC34CC(CO)(C3)C4)nc2)ccc1=O` [Compound I-58, N-ethyl-2-(3-(6-((3-(hydroxymethyl)bicyclo[1.1.1]pentan-1-yl)amino)pyridin-3-yl)-6-oxopyridazin-1(6H)-yl)acetamide], the IC50 in assay [1] (Table 4A) is 10 to 100 µM; in assay [2] (Table 5A), over 100 µM.

`CCNC(=O)Cn1nc(-c2cnc(Oc3ccc(Cl)cc3)nc2)ccc1=O` [Compound I-78, 2-(3-(2-(4-chlorophenoxy)pyrimidin-5-yl)-6-oxopyridazin-1(6H)-yl)-N-ethylacetamide]: the figures for the half-maximal inhibitory concentration (IC50) in assay [1] (Table 4A) and in assay [2] (Table 5A) were 10 to 100 µM and over 100 µM, respectively.

Consider `O=C(Cn1nc(-c2ccc(OCC(F)(F)F)cc2)ccc1=O)NCc1ccc(O)nc1` [II-20, N-((6-hydroxypyridin-3-yl)methyl)-2-(6-oxo-3-(4-(2,2,2-trifluoroethoxy)phenyl)pyridazin-1(6H)-yl)acetamide], for which the concentration for half-maximal inhibition (IC50) in assay [1] (Table 4B) and in assay [2] (Table 5B) was over 100 µM each time.

With `CCNC(=O)Cn1nc(-c2ccc(OCC3COC3)nc2)ccc1=O` [Compound I-22, N-ethyl-2-(3-(6-(oxetan-3-ylmethoxy)pyridin-3-yl)-6-oxopyridazin-1(6H)-yl)acetamide], the half-inhibitory concentration (IC50) in assay [1] (Table 4A) was 10 to 100 µM; in assay [2] (Table 5A), over 100 µM.

Consider `COc1ccc(-c2ccc(=O)n(CC(=O)NCc3ccc(F)cc3)n2)c(F)c1` [IIIb-46, 2-(3-(2-fluoro-4-methoxyphenyl)-6-oxopyridazin-1(6H)-yl)-N-(4-fluorobenzyl)acetamide], for which the 50% inhibitory concentration (IC50) in assay [1] (Table 4C) and in assay [2] (Table 5C) was over 100 µM each time.

For the compound `O=C(Cn1nc(-c2ccc(OCC(F)(F)F)cc2)ccc1=O)NCc1ccc(CO)cc1` [II-24, N-(4-(hydroxymethyl)benzyl)-2-(6-oxo-3-(4-(2,2,2-trifluoroethoxy)phenyl)pyridazin-1(6H)-yl)acetamide], the concentration for half-maximal inhibition (IC50) in assay [1] (Table 4B) and in assay [2] (Table 5B) was over 100 µM throughout.

For `O=C(Cn1nc(-c2ccc(OC(F)F)nc2)ccc1=O)NCc1cccc(Cl)c1` [Compound I-76, N-(3-chlorobenzyl)-2-(3-(6-(difluoromethoxy)pyridin-3-yl)-6-oxopyridazin-1(6H)-yl)acetamide], the values for the concentration for half-maximal inhibition (IC50) in assay [1] (Table 4A) and in assay [2] (Table 5A) were 10 to 100 µM and over 100 µM, respectively.

For the compound `CCNC(=O)Cn1nc(-c2ccc(OC(F)F)cc2)ccc1=O` [II-10, 2-(3-(4-(difluoromethoxy)phenyl)-6-oxopyridazin-1(6H)-yl)-N-ethylacetamide], the half-maximal inhibitory concentration (IC50) in assay [1] (Table 4B) is under 10 µM; in assay [2] (Table 5B) it was over 100 µM.

With `CCNC(=O)Cn1nc(-c2ccc(NC3CCOCC3)nc2)ccc1=O` [Compound I-45, N-ethyl-2-(6-oxo-3-(6-((tetrahydro-2H-pyran-4-pyran-4-yl)amino)pyridin-3-yl)pyridazin-1(6H)-yl)acetamide], the concentration for half-maximal inhibition (IC50) in assay [1] (Table 4A) and in assay [2] (Table 5A) was over 100 µM throughout.

For `O=C(Cn1nc(-c2ccc(Cl)cc2)ccc1=O)Nc1ccccc1Cl` [IIIc-28, N-(2-chlorophenyl)-2-(3-(4-chlorophenyl)-6-oxopyridazin-1(6H)-yl)acetamide], the figures for the IC50 in assay [1] (Table 4C) and in assay [2] (Table 5C) were under 10 µM and 10 to 100 µM, respectively.

Take `CCNC(=O)Cn1nc(-c2ccc(C3CC3)nc2)ccc1=O` [Compound I-12, 2-(3-(6-cyclopropylpyridin-3-yl)-6-oxopyridazin-1(6H)-yl)-N-ethylacetamide]: the IC50 was 10 to 100 µM in assay [1] (Table 4A) and over 100 µM in assay [2] (Table 5A).

Turning to `COc1ccc(-c2ccc(=O)n(CC(=O)Nc3ncccc3C)n2)cc1` [IIIb-27, 2-(3-(4-methoxyphenyl)-6-oxopyridazin-1(6H)-yl)-N-(3-methylpyridin-2-yl)acetamide], the 50% inhibitory concentration (IC50) in assay [1] (Table 4C) is 10 to 100 µM; in assay [2] (Table 5C), over 100 µM.

For the compound `CCNC(=O)Cn1nc(-c2cnc(OCC(F)(F)F)nc2)ccc1=O` [Compound I-8, N-ethyl-2-(6-oxo-3-(2-(2,2,2-trifluoroethoxy)pyrimidin-5-yl)pyridazin-1(6H)-yl)acetamide], the figures for the IC50 in assay [1] (Table 4A) and in assay [2] (Table 5A) were under 10 µM and over 100 µM, respectively.

Turning to `COc1ccc(-c2ccc(=O)n(CC(=O)Nc3ccc4c(c3)OCCO4)n2)cc1` [IIIb-16, N-(2,3-dihydrobenzo[b][1,4]dioxin-6-yl)-2-(3-(4-methoxyphenyl)-6-oxopyridazin-1(6H)-yl)acetamide], the IC50 in assay [1] (Table 4C) is under 10 µM; in assay [2] (Table 5C) it was over 100 µM.

Turning to `COc1ccc(NC(=O)Cn2nc(-c3ccc(F)cc3)ccc2=O)c(OC)c1` [IIIc-31, N-(2,4-dimethoxyphenyl)-2-(3-(4-fluorophenyl)-6-oxopyridazin-1(6H)-yl)acetamide], the values for the half-inhibitory concentration (IC50) in assay [1] (Table 4C) and in assay [2] (Table 5C) were 10 to 100 µM and over 100 µM, respectively.

`CCNC(=O)Cn1nc(-c2ccc(OCC3(F)COC3)nc2)ccc1=O` [Compound I-23, N-ethyl-2-(3-(6-((3-fluorooxetan-3-yl)methoxy)pyridin-3-yl)-6-oxopyridazin-1(6H)-yl)acetamide]: the values for the IC50 in assay [1] (Table 4A) and in assay [2] (Table 5A) were 10 to 100 µM and over 100 µM, respectively.

Take `COc1ccc(-c2ccc(=O)n(CC(=O)NCc3ccc(F)cc3)n2)cc1` [IIIb-50, N-(4-fluorobenzyl)-2-(3-(4-methoxyphenyl)-6-oxopyridazin-1(6H)-yl)acetamide]: the IC50 in assay [1] (Table 4C) and in assay [2] (Table 5C) was over 100 µM throughout.

Take `O=C(Cn1nc(-c2ccc(Cl)cc2)ccc1=O)Nc1ccc2[nH]ccc2c1` [IIIc-22, 2-(3-(4-chlorophenyl)-6-oxopyridazin-1(6H)-yl)-N-(1H-indol-5-yl)acetamide]: the IC50 in assay [1] (Table 4C) is under 10 µM; in assay [2] (Table 5C), over 100 µM.
